Results published in patent US20030032662A1, “Micronized leflunomide” (priority 2000, published 2003).

Assay: Particle size after micronizing in a micronizer
Type: physicochemical
Conditions: pure dry leflunomide micronized in a micronizer (Example 1)
From the text: Pure dry leflunomide was micronized in a micronizer. The result was micronized leflunomide of a particle size of less than 5 micrometer.

particle size: less than 5 micrometer
Structure (SMILES): Cc1oncc1C(=O)Nc1ccc(C(F)(F)F)cc1 [micronized leflunomide, N-(4′-trifluoromethylphenyl)-5-methylisoxazole-4-carboxamide]
